One series has as its target T1, α1GlyR G160E (Rattus norvegicus, UniProt P07727, G188E).
T1 construct: expressed in transfected cells; host or cells: HEK293 (ATCC CRL-1573)
T1 sequence (P07727 29-457 G188E): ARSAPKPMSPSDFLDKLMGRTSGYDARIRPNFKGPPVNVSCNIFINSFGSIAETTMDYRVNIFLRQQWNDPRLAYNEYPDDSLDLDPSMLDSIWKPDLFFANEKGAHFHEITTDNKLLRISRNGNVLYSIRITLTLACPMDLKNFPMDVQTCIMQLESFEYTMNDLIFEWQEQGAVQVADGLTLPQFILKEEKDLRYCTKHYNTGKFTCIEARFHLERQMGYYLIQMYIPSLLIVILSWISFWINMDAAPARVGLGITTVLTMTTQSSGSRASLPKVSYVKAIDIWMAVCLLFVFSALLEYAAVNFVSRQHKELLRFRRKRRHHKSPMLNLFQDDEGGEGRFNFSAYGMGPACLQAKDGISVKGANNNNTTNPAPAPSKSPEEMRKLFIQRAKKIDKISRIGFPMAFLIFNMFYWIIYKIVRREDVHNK
The class given is cell-based. How it is done: (§1) The cells were transfected with plasmids encoding the following proteins: (i). rat GlyR α (1, 2, 3) subunits alone or combined with rat β subunits (Uniprot Accession Numbers: Q546L7, P22771, P20236, P20781); and (ii). rat GABAAR α1 combined with rat β2 and γ2 subunits (Uniprot Accession Numbers: P62813, P63138, P18508). The EGFP expression was used as a marker of successful protein expression. The transfection was performed using Lipofectamine 2000 (Invitrogen, ThermoFisher, Carlsbad, CA, USA) using the fabricant protocol. The plasmids used to express GlyRs and GABAARs have been previously described. To track the successful expression of GlyR β subunits and the GABAA γ2 or β2 subunit, these proteins were subcloned in the pIRES2-EGFP vector. The transfection ratio to obtain β-containing GlyRs was 1:5 of α:β, while the expression of γ2-containing GABAA receptors was 1:2:5 of α:β:γ2 [14, 15]. Chimeric GlyRs were described in a previous report. Site directed mutagenesis was performed by Charm Gene Science Mutagenex LLC. (Cumming, GA, USA). All the constructs were checked by full-length sequencing (SNPSaurus, Eugene, OR, USA).
(§2) In brief, patch electrodes (3–4 MΩ) were pulled from borosilicate glasses in a PC-100 puller (Narishige, Tokyo, Japan); then, they were filled with an intracellular solution, which contained (in mM) 120 CsCl, 8 EGTA, 10 HEPES (pH 7.4), 4 MgCl2, 0.5 GTP, and 2 ATP. The extracellular solution contained (in mM) 140 NaCl, 5.4 KCl, 2.0 CaCl2, 1.0 MgCl2, 10 HEPES (pH 7.4), and 10 glucose. Whole-cell patch-clamp recordings were performed at −60 mV with an Axoclamp 200B (Molecular Devices, Sunnyvale, CA, USA) or with HEKA EPC-10 (HEKA Elektronik GmbH, Reutlingen, Germany) amplifiers. […] Brief (3–5 s) pulses of agonist together with alkaloids were applied to cells. Stock solutions of the alkaloids were prepared in high purity distilled water. Aliquots of these stock solutions were diluted in reservoirs containing extracellular solution. […] The concentration–response curve parameters for the alkaloid inhibition (IC50, nH, and the maximal current inhibition) were obtained from the fitted curve of normalized concentration–response data points to the equation Iagonist = Imax (agonist)nH/((agonist)nH + (EC50)nH). The IC50 curves are best-fit mean ± SE from pooled data. […] The inhibition constant (Ki) was calculated using the Cheng–Prusoff equation (Ki = IC50/((2 + ([Agonist]/EC50)^nH)^1/nH − 1). The concentration of agonist corresponds to the sub-saturating agonist concentration used to obtain the IC50 for each alkaloid on a given GlyR subtype.

Another series has as its target T2, α3β GlyR (Rattus norvegicus, UniProt P20781+P24524).
T2 construct: The cells were transfected with plasmids encoding the following proteins; expressed in transfected cells; host or cells: HEK293 (ATCC CRL-1573)
Description: cell-based. The class given is cell-based. How it is done: as §1
as §2, with “The” for “The inhibition constant (Ki) was calculated using the Cheng–Prusoff equation (Ki = IC50/((2 + ([Agonist]/EC50)^nH)^1/nH − 1). The”

The conditions of series [1]: cited from earlier work.
A further series deals with T3, α2 GlyR (Rattus norvegicus, UniProt P22771).
T3 construct: The cells were transfected with plasmids encoding the following proteins; expressed in transfected cells; host or cells: HEK293 (ATCC CRL-1573)
T3 sequence (P22771 28-452): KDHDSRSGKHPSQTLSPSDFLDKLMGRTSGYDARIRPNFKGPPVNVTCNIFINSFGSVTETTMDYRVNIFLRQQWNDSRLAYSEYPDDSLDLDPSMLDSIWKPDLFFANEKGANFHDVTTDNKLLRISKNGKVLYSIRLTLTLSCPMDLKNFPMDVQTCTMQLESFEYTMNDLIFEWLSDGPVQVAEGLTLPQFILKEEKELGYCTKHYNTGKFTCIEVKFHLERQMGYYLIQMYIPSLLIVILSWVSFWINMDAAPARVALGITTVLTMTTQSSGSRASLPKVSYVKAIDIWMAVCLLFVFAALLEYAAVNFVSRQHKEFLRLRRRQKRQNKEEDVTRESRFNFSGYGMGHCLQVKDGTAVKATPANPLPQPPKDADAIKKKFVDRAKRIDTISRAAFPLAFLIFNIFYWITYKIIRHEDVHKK
Description: cell-based. The class given is cell-based. How it is done: as §1, §2

[2] abbreviates: Hill coefficient of inhibition curve.
The mark [3] stands for this setting: calculated using the Cheng–Prussof equation.

Molecules are shown by their SMILES. Where two headings read alike, the source gives them in different places.

The IC50 is the concentration that gives 50% inhibition. As usually defined, the Ki is the equilibrium dissociation constant of an inhibitor or competing ligand from its target. As usually defined, the EC50 is the concentration giving half of the maximal effect.

T2 sequence (P24524 34-464): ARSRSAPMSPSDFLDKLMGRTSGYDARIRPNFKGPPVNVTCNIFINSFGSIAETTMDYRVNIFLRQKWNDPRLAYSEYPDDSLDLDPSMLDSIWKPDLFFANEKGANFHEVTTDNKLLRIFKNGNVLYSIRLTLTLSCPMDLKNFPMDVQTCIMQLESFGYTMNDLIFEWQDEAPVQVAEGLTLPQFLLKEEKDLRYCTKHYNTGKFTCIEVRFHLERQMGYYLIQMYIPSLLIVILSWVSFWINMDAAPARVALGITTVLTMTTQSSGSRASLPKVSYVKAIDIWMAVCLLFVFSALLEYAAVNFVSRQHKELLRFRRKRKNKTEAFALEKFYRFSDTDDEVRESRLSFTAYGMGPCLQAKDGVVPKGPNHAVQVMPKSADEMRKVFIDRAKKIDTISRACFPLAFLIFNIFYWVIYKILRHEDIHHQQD
T2 sequence (P20781 23-496): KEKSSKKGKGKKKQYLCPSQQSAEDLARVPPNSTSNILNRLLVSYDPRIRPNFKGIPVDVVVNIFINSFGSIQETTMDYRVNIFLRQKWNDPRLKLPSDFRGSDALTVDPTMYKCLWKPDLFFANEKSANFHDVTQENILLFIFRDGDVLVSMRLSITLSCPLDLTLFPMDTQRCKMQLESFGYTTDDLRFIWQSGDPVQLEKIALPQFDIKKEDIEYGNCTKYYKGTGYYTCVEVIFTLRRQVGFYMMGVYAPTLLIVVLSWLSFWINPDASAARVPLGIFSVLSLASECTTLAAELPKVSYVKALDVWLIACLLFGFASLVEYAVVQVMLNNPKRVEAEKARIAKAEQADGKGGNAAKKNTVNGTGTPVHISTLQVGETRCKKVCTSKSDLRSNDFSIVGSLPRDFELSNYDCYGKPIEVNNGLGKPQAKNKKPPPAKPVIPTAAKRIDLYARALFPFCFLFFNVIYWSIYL

As to `C=C[C@@]12CN(C)[C@H]3C[C@]14C(=Nc1ccccc14)[C@H]1C[C@@H]2[C@@H]3CO1` [koumine], the “alkaloid sensitivity of glycine-evoked currents (in words)” value on α1GlyR G160E is “not exert detectable effects”. In addition, the IC50 on α3β GlyR is 20.2 ± 7.7 µM; on α2 GlyR it was 11.2 ± 2.1 µM. For the same molecule, the nH at α3β GlyR (setting [2]) is given as 0.9 ± 0.3; at α2 GlyR (setting [2]) it was 1.0 ± 0.2. The Ki at α3β GlyR (setting [3]) was 54.1 ± 20 µM; on α2 GlyR (setting [3]) it was 44.2 ± 4.6 µM. In series [1], the “residue in brain tissue after systemic application” value is reported as “fully depleted after 1 day”.

Take `C=C[C@]12CN(C)[C@@H]3[C@H]4CO[C@H](C[C@H]41)[C@]1(C(=O)Nc4ccccc41)[C@@H]32` [gelsemine]: the “alkaloid sensitivity of glycine-evoked currents (in words)” value at α1GlyR G160E (G160E, gelsemine 10 μM or 200 μM, 1 mM glycine) is given as “insensitive”. Also, in series [1], the “residue in brain tissue after systemic application” value was “detectable in brain tissue after 3 days”. Besides, the “effect on glycine-evoked currents (in words)” value at α2 GlyR (wild-type, 50 μM gelsemine, 60 μM glycine) was “inhibited”.

`NCC(=O)O` [glycine, reference compound]: the EC50 at α3β GlyR (read-out: EC50 of agonist) is 243 ± 13 µM; at α2 GlyR (read-out: EC50 of agonist) it was 91 ± 6 µM.

(Values after publication PMC10970644, “Molecular Pharmacology of Gelsemium Alkaloids on Inhibitory Receptors” (International Journal of Molecular Sciences, 2024).)
